From US8012492B2, “In vitro model of latent mycobacterial infection” (University of Central Florida Research Foundation, Inc., priority 2007, dated 2011)

Experiments:
Mtb within TDM = assay type: cell-based, Mycobacterium tuberculosis
WT-H37Rv = assay type: cell-based, Mycobacterium tuberculosis

| Structure (SMILES) | Resistance of Mtb recovered from TDM to antibiotics (Mtb within TDM) | Development of Rif resistance, share of the Mtb population (Mtb within TDM) | Rif resistant cells (WT-H37Rv) | Rif-resistance (WT-H37Rv) | Rif-resistant cells (WT-H37Rv) |
| --- | --- | --- | --- | --- | --- |
| NNC(=O)c1ccncc1 [INH] | showed resistance to both antibiotics |  |  |  |  |
| CO[C@H]1/C=C/O[C@@]2(C)Oc3c(C)c(O)c4c(O)c(c(/C=N/N5CCN(C)CC5)c(O)c4c3C2=O)NC(=O)/C(C)=C\C=C\[C@H](C)[C@H](O)[C@@H](C)[C@@H](O)[C@@H](C)[C@H](OC(C)=O)[C@@H]1C [Rif, Rifampicin] |  | about 25% | about 10% | up to 25% | about 0.03% |
